The subject of data set [1] is MCF-7 (ATCCR HTB-22) breast cancer cells. Put plainly: MTT viability assay, MCF-7 breast cancer cells. The class given is cell-based. The settings on record: for IC50: Homo sapiens, MCF7, MCF-7, MTT, 24 h incubation, mean ± SD (n = 3), read-out: Cytotoxic activity IC50; for Potency in MTT assay: MCF-7, 100 μM concentration, P values less than 0.0001. The protocol:
(§1) MDA MB-231 and MCF-7 (ATCCR HTB-26 and ATCCR HTB-22) breast cancer cells, originated from Pasteur Institute (IPI, Tehran, I.R. Iran), were cultured in RPMI1640 with streptomycin, penicillin, and fetal bovine serum (FBS) (100 µg/mL, 100 units/mL, 10%) with criteria of 5% carbon dioxide, 37 °C, and 95% humidity for a few days. Mouse normal fibroblast cell line (NCTC clone 929 from the same institute) was cultured in DMEM+10% FBS+ 1% penicillin/streptomycin in the same conditions. After incubation, cells were seeded at 7 × 10^3 cells in each well of ninety-six well plates for 12 h. Then, the media were changed, and sample compounds in concentrations of 1, 10, and 100 µM were added. For L929 normal cell line, samples were added in the concentrations of 1, 10, 100, 250, and 500 µM. Placebo with the same amount of DMSO in each concentration used for compounds and Taxol in concentrations of 0.001, 0.01, 0.1, 1, and 10 µM were added as the negative and positive controls. After 24 h incubation time, the reduction agent (MTT, 5 mg/mL, 20 µL) was added to each well and incubated for 4 h to let the MTT be reduced into formazan derivative by the mitochondria of survived cells. The media was then changed with DMSO (200 µL) to solubilize the insoluble formazan crystals, and the absorbance was read by a Synergy ELISA reader (BioTek Instruments, Winooski, VT, USA) at 570 nm.
In general terms: Formazan colour is commonly taken as a measure of viable cells.

Data set [2] deals with human colon (Caco-2) tumor cells. Set-up: method as in PMID 30200407. The settings on record: cited from earlier work.
Data set [3] deals with human lung (A549) tumor cells. Set-up: method as in PMID 30200407. The settings on record: cited from earlier work.
Data set [4] concerns MDA-MB-231 (ATCCR HTB-26) breast cancer cells. Put plainly: MTT viability assay, MDA-MB-231 breast cancer cells. The settings on record: for IC50: Homo sapiens, MDA-MB-231, MTT, 24 h incubation, mean ± SD (n = 3), read-out: Cytotoxic activity IC50; for Cytotoxicity against MDA-MB-231 compared to MCF-7: comparison of MTT test results, MDA-MB-231 vs MCF-7. It counts as cell-based. The method, then: as §1

Data set [5] can be described thus: MTT viability assay, L929 normal fibroblast cell line. It counts as cell-based. The settings on record: L929 normal fibroblast cells (NCTC clone 929), L929 (normal) mouse fibroblast, 24 h incubation, mean ± SD (n = 3), read-out: Cytotoxic activity IC50. The protocol:
as §1

Details of data set [6]: method as in PMID 30707022. The settings on record: compound isolated from roots of Euphorbia prolifera; cited from earlier work.

We go through five compounds from PMC9964718, “Diterpenoids from Euphorbia gedrosiaca as Potential Anti-Proliferative Agents against Breast Cancer Cells” (Metabolites, 2023).

Broadly, the IC50 is the midpoint of a concentration-inhibition curve.

For `CCC(=O)O[C@@H]1[C@@H]2[C@@H](OC(=O)C(C)CC)[C@@]3(COC(=O)c4cccnc4)[C@@H]([C@@H]4[C@H](C[C@H]3OC(C)=O)C4(C)C)[C@](C)(OC(C)=O)C(=O)[C@@]2(O)C[C@@H]1C` (stereo partly drawn) [Compound 1, 3β-O-propanoyl-5α-O-methylbutanoyl-7α,13β-O-diacetyl-17α-O-nicotinoyl-14-oxopremyrsinane], the IC50 in data set [1] amounted to 22.2 ± 2.4 µM; in data set [4], 10.8 ± 2.1 µM. Further, in data set [1], the “Potency in MTT assay” value is “reasonably potent”. Further, the “Cytotoxicity against proliferation” value in data set [2] and in data set [3] was “moderate cytotoxicity” in each case. Further, in data set [5], the IC50 at 24 h turned out to be 528 ± 23.8 µM.

For `CCC(=O)O[C@@H]1[C@@H]2[C@@H](OC(=O)c3ccccc3)[C@@]3(COC(C)=O)[C@@H]([C@@H]4[C@H](C[C@H]3OC(C)=O)C4(C)C)[C@](C)(OC(C)=O)C(=O)[C@@]2(O)C[C@@H]1C` [Compound 2, 3β-O-propanoyl-5α-O-benzoyl-7α,13β, 17α -O-triacetyl-14-oxopremyrsinane], in data set [1], the IC50 is 27.8 ± 2.5 µM and the “Potency in MTT assay” value was “reasonably potent”. Also, the “Lipid-lowering activities and TG inhibitory effects” value in data set [6] was “acceptable”. Further, the IC50 in data set [4] was determined as 22.2 ± 4 µM. For the same compound, the half-inhibitory concentration (IC50) at 24 h in data set [5] was 553 ± 26.7 µM.

For `CCC(=O)O[C@@H]1[C@@H]2[C@@H](OC(=O)C(C)C)[C@@]3(COC(C)=O)[C@@H]([C@@H]4[C@H](C[C@H]3OC(C)=O)C4(C)C)[C@](C)(OC(C)=O)C(=O)[C@@]2(O)C[C@@H]1C` [Compound 3, 3β-O-propanoyl-5α-O-isobutanoyl-7α,13β, 17α -O-triacetyl-14-oxopremyrsinane], the IC50 in data set [1] was 62.6 ± 4.9 µM; in data set [4], 24.5 ± 3.8 µM. The “Cytotoxicity against proliferation” value in data set [2] and in data set [3] was “moderate cytotoxicity” each time. In data set [4], the “Cytotoxicity against MDA-MB-231 compared to MCF-7” value is “almost three times higher cytotoxicity”. Also, the IC50 at 24 h in data set [5] is 433 ± 22.1 µM.

As for `CCC(=O)O[C@@H]1[C@@H]2[C@@H](OC(=O)C(C)C)[C@@]3(COC(=O)c4cccnc4)[C@@H]([C@@H]4[C@H](C[C@H]3OC(C)=O)C4(C)C)[C@](C)(OC(C)=O)C(=O)[C@@]2(O)C[C@@H]1C` [Compound 4, 3β-O-propanoyl-5α-O-isobutanoyl-7α,13β-O-diacetyl-17α-O-nicotinoyl-14-oxopremyrsinane], the IC50 is 74.4 ± 5.2 µM in data set [1] and 27.3 ± 3.2 µM in data set [4]. Moreover, the “Cytotoxicity against proliferation” value in data set [2] and in data set [3] was “moderate cytotoxicity” each time. Besides, the “Cytotoxicity against MDA-MB-231 compared to MCF-7” value in data set [4] is given as “almost three times higher cytotoxicity”. Moreover, in data set [5], the half-maximal inhibitory concentration (IC50) at 24 h came out at 716 ± 26.9 µM.

Take `CCC(=O)OC1C2C(OC(C)=O)C34COC(C)(C(OC(=O)c5ccccc5)C2(OC(C)=O)CC1(C)OC(C)=O)C3C(C(C)(C)OC(C)=O)C=CC4OC(C)=O` (centres unmarked) [Compound 5, 2,5,7,10,15-O-pentaacetyl-3-O-propanoyl-14-O-benzoyl-13,17-epoxy-8-myrsinene]: the figures for the IC50 in data set [1] and in data set [4] were 126 ± 4.2 µM and 33.7 ± 4.6 µM, respectively. Also, in data set [5], the IC50 at 24 h turned out to be 596 ± 23.5 µM.
